Where two headings read alike, the source gives them in different places.
Legend:
[1] = target: T1, FEN-1 (flap endonuclease-1) purified from the nuclear fraction of mouse pre-B cell line 1-8 (Mus musculus, UniProt P39749); test: biochemical; conditions: 0.5 h, read-out: % Activity (exonuclease activity, FEN-1 activity versus divalent metal ion)
Method: All purification steps were carried out at 0°-4° C. Six liters of the murine pre-B cell line, 1-8 (Alt et al., 1984), were grown to 2×10^6 cells/ml in RPMI 1640, 10% FBS, 50 μM β-mercaptoethanol (βME), 100 μg/ml penicillin-streptomycin in spinner flasks. Eighteen liters of RPMI 1640 and 100 μg/ml penicillin-streptomycin were then added, and the cells were allowed to grow for an additional 24 h. The cells were harvested at a cell density of 1-1.5×10^6 cells/ml and spun at 1000 g in a Beckman JA-10 rotor for 5 min. The cell pellet was then washed with 500 ml of ice-cold PBS (5 mM NaPi pH 7.4, 137 mM NaCl, 3 mM KCl) supplemented with 1 g/l MgCl2 and pelleted as above. Nuclei were isolated by allowing the cell pellet to swell in 100 ml Buffer A (10 mM HEPES-KOH pH 7.8, 1.5 mM MgCl2, 10 mM KCl, 0.5 mM DTT) for 10 min on ice. The swollen cells were spun for 5 min at 2500 g in a Beckman J6B centrifuge, resuspended in 40 ml Buffer A and homogenized with 20 strokes of the B-pestle in a Dounce homogenizer. The nuclei were collected by centrifugation at 2500 g in a Beckman J6B for 5 min and lysed by adding 40 ml of Buffer B (20 mM EPES-KOH pH 7.8, 0.42M NaCl, 25% glycerol, 1.5 mM MgCl2, 0.2 mM EDTA, 0.5 mM DTT, 0.5 mM PMSF). Nuclear lysis was completed with 20 strokes of the B-pestle in a Dounce homogenizer. […]

[2] = target: T1, FEN-1 (flap endonuclease-1) purified from the nuclear fraction of mouse pre-B cell line 1-8; test: biochemical; conditions: read-out: % Activity (endonuclease activity, FEN-1 activity versus divalent metal ion)
From the text: (§1) FEN-1 was purified from the nuclear fraction of a mouse pre-B cell line. The chromatographic behavior of FEN-1 was monitored using Flap Substrate 1 in the standard FEN-1 endonuclease assay.

[3] = target: T1, FEN-1 (flap endonuclease-1) purified from the nuclear fraction of mouse pre-B cell line 1-8; conditions: replacement of MgCl2 with 5 mM EDTA
From the text: as §1

T1 sequence (P39749 whole entry): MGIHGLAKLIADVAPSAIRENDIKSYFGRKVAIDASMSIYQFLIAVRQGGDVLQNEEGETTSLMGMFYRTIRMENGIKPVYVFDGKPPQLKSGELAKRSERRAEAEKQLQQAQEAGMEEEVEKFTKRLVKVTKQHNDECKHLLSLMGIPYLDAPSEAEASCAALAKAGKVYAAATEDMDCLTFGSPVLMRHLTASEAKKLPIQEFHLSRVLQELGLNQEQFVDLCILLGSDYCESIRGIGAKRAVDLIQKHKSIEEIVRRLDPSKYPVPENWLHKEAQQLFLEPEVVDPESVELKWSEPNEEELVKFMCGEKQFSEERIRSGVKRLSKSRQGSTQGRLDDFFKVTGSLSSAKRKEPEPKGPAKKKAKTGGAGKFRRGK

O=C(O)CN(CCN(CC(=O)O)CC(=O)O)CC(=O)O [EDTA]
activity at 5000 µM [1]: < 0.5% | activity at 5000 µM [2]: < 1% | Inhibition of the flap cleavage reaction [3]: completely inhibited
